SMILES strings stand for the structures.

The first test relates to HCT116 cells. The test is described as follows: In vitro cytotoxicity measured by the cell colony formation assay. Format: cell-based. The note with it: HCT116 cells, 72 h incubation with drug, colonies counted after 7 days; ID50 = drug concentration producing 50% inhibition of colony formation; read-out: IN VITRO ID 50 (nm) HCT116. In short, it runs like this: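 Colony-forming survival was scored 7 days after a 72 h, 37 °C compound exposure followed by washout into fresh medium.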
For `CCOC(=O)O[C@H]1C[C@H]2OC[C@@]2(OC(C)=O)C2[C@H](OC(=O)c3ccccc3)[C@]3(O)C[C@H](OC(=O)[C@H](O)[C@@H](NC(=O)c4cccs4)c4cccs4)C(C)=C([C@@H](O)C(=O)[C@@]21C)C3(C)C` (stereo partly drawn) [Compound 4455], the IC50 is less than 1 nM.

With `CCOC(=O)O[C@H]1C[C@H]2OC[C@@]2(OC(C)=O)C2[C@H](OC(=O)c3ccccc3)[C@]3(O)C[C@H](OC(=O)[C@H](O)[C@@H](NC(=O)OC(C)(C)C)c4ccoc4)C(C)=C([C@@H](O)C(=O)[C@@]21C)C3(C)C` (stereo partly drawn) [Compound 4464], the IC50 was less than 1 nM.

For the compound `COC(=O)O[C@H]1C[C@H]2OC[C@@]2(OC(C)=O)C2[C@H](OC(=O)c3ccccc3)[C@]3(O)C[C@H](OC(=O)[C@H](O)[C@@H](NC(=O)OC(C)(C)C)c4ccsc4)C(C)=C([C@@H](O)C(=O)[C@@]21C)C3(C)C` (stereo partly drawn) [Compound 4474], the IC50 is less than 1 nM.

In the case of `COC(=O)O[C@H]1C[C@H]2OC[C@@]2(OC(C)=O)C2[C@H](OC(=O)c3ccccc3)[C@]3(O)C[C@H](OC(=O)[C@H](O)[C@H](C=C(C)C)NC(=O)OC(C)(C)C)C(C)=C([C@@H](O)C(=O)[C@@]21C)C3(C)C` (stereo partly drawn) [Compound 4484], the IC50 is less than 1 nM.

Consider `CCOC(=O)O[C@H]1C[C@H]2OC[C@@]2(OC(C)=O)C2[C@H](OC(=O)c3ccccc3)[C@]3(O)C[C@H](OC(=O)[C@H](O)[C@@H](NC(=O)OC(C)(C)C)c4ccsc4)C(C)=C([C@@H](O)C(=O)[C@@]21C)C3(C)C` (stereo partly drawn) [Compound 4500], for which the IC50 is less than 1 nM.

On to `CC(=O)O[C@H]1C[C@H]2OC[C@@]2(OC(C)=O)C2[C@H](OC(=O)c3ccccc3)[C@]3(O)C[C@H](OC(=O)[C@H](O)[C@@H](NC(=O)OCC(C)C)c4ccsc4)C(C)=C([C@@H](O)C(=O)[C@@]21C)C3(C)C` (stereo partly drawn) [Compound 4515], for which the IC50 was less than 10 nM.

In the case of `CCOC(=O)O[C@H]1C[C@H]2OC[C@@]2(OC(C)=O)C2[C@H](OC(=O)c3ccccc3)[C@]3(O)C[C@H](OC(=O)[C@H](O)[C@H](C=C(C)C)NC(=O)OC(C)(C)C)C(C)=C([C@@H](O)C(=O)[C@@]21C)C3(C)C` (stereo partly drawn) [Compound 4524], the IC50 was less than 1 nM.

On to `COC(=O)O[C@H]1C[C@H]2OC[C@@]2(OC(C)=O)C2[C@H](OC(=O)c3ccccc3)[C@]3(O)C[C@H](OC(=O)[C@H](O)[C@@H](NC(=O)OC(C)(C)C)c4ccco4)C(C)=C([C@@H](O)C(=O)[C@@]21C)C3(C)C` (stereo partly drawn) [Compound 4533], for which the IC50 was less than 1 nM.

Turning to `CC(=O)O[C@H]1C[C@H]2OC[C@@]2(OC(C)=O)C2[C@H](OC(=O)c3ccccc3)[C@]3(O)C[C@H](OC(=O)[C@H](O)[C@@H](NC(=O)OC(C)(C)C)C4CC4)C(C)=C([C@@H](O)C(=O)[C@@]21C)C3(C)C` (stereo partly drawn) [Compound 4555], the IC50 is less than 1 nM.

In the case of `COC(=O)O[C@H]1C[C@H]2OC[C@@]2(OC(C)=O)C2[C@H](OC(=O)c3ccccc3)[C@]3(O)C[C@H](OC(=O)[C@H](O)[C@@H](NC(=O)OC(C)(C)C)C4CC4)C(C)=C([C@@H](O)C(=O)[C@@]21C)C3(C)C` (stereo partly drawn) [Compound 4566], the IC50 was less than 1 nM.

In the case of `COC(=O)O[C@H]1C[C@H]2OC[C@@]2(OC(C)=O)C2[C@H](OC(=O)c3ccccc3)[C@]3(O)C[C@H](OC(=O)[C@H](O)[C@@H](NC(=O)OC(C)(C)C)c4ccco4)C(C)=C([C@@H](O)C(=O)[C@@]21C)C3(C)C` (stereo partly drawn) [Compound 4575], the IC50 is less than 1 nM.

Take `COC(=O)O[C@H]1C[C@H]2OC[C@@]2(OC(C)=O)C2[C@H](OC(=O)c3ccccc3)[C@]3(O)C[C@H](OC(=O)[C@H](O)[C@@H](NC(=O)OCC(C)C)c4ccoc4)C(C)=C([C@@H](O)C(=O)[C@@]21C)C3(C)C` (stereo partly drawn) [Compound 4584]: the IC50 is less than 10 nM.

Consider `CCOC(=O)O[C@H]1C[C@H]2OC[C@@]2(OC(C)=O)C2[C@H](OC(=O)c3ccccc3)[C@]3(O)C[C@H](OC(=O)[C@H](O)[C@@H](NC(=O)OCC(C)C)c4ccoc4)C(C)=C([C@@H](O)C(=O)[C@@]21C)C3(C)C` (stereo partly drawn) [Compound 4624], for which the IC50 is less than 10 nM.

Regarding `CCOC(=O)O[C@H]1C(=O)[C@@]2(C)C([C@H](OC(=O)c3ccccc3)[C@]3(O)C[C@H](OC(=O)[C@H](O)[C@@H](NC(=O)OCC(C)C)c4ccoc4)C(C)=C1C3(C)C)[C@]1(OC(C)=O)CO[C@@H]1C[C@@H]2O` (stereo partly drawn) [Compound 4636], the IC50 was less than 10 nM.

For the compound `COC(=O)O[C@H]1C[C@H]2OC[C@@]2(OC(C)=O)C2[C@H](OC(=O)c3ccccc3)[C@]3(O)C[C@H](OC(=O)[C@H](O)[C@H](C=C(C)C)NC(=O)OCC(C)C)C(C)=C([C@@H](O)C(=O)[C@@]21C)C3(C)C` (stereo partly drawn) [Compound 4644], the IC50 was less than 10 nM.

For `COC(=O)O[C@H]1C[C@H]2OC[C@@]2(OC(C)=O)C2[C@H](OC(=O)c3ccccc3)[C@]3(O)C[C@H](OC(=O)[C@H](O)[C@@H](NC(=O)OCC(C)C)c4ccco4)C(C)=C([C@@H](O)C(=O)[C@@]21C)C3(C)C` (stereo partly drawn) [Compound 4656], the IC50 is less than 1 nM.

As for `COC(=O)O[C@H]1C[C@H]2OC[C@@]2(OC(C)=O)C2[C@H](OC(=O)c3ccccc3)[C@]3(O)C[C@H](OC(=O)[C@H](O)[C@@H](NC(=O)OCC(C)C)c4ccsc4)C(C)=C([C@@H](O)C(=O)[C@@]21C)C3(C)C` (stereo partly drawn) [Compound 4674], the IC50 was less than 1 nM.

Take `CCOC(=O)O[C@H]1C[C@H]2OC[C@@]2(OC(C)=O)C2[C@H](OC(=O)c3ccccc3)[C@]3(O)C[C@H](OC(=O)[C@H](O)[C@H](C=C(C)C)NC(=O)OCC(C)C)C(C)=C([C@@H](O)C(=O)[C@@]21C)C3(C)C` (stereo partly drawn) [Compound 4688]: the IC50 is less than 10 nM.

On to `CCOC(=O)O[C@H]1C[C@H]2OC[C@@]2(OC(C)=O)C2[C@H](OC(=O)c3ccccc3)[C@]3(O)C[C@H](OC(=O)[C@H](O)[C@@H](NC(=O)OCC(C)C)c4ccco4)C(C)=C([C@@H](O)C(=O)[C@@]21C)C3(C)C` (stereo partly drawn) [Compound 4696], for which the IC50 was less than 1 nM.

On to `C/C=C/C(=O)N[C@@H](c1ccco1)[C@@H](O)C(=O)O[C@H]1C[C@@]2(O)[C@@H](OC(=O)c3ccccc3)C3[C@](C)(C(=O)[C@H](O)C(=C1C)C2(C)C)[C@@H](OC(=O)OC)C[C@H]1OC[C@@]31OC(C)=O` (stereo partly drawn) [Compound 4744], for which the IC50 is less than 1 nM.

As for `C/C=C/C(=O)N[C@@H](c1cccs1)[C@@H](O)C(=O)O[C@H]1C[C@@]2(O)[C@@H](OC(=O)c3ccccc3)C3[C@](C)(C(=O)[C@H](O)C(=C1C)C2(C)C)[C@@H](OC(=O)OC)C[C@H]1OC[C@@]31OC(C)=O` (stereo partly drawn) [Compound 4766], the IC50 was less than 1 nM.

Staying with this test, now noted: HCT116 colony formation; 72 h drug incubation, colonies counted after 7 days; Example 5, C-7 ester/C-10 hydroxy taxanes; read-out: IN VITRO ID 50 (nm) HCT116.
With `CCCC(=O)O[C@H]1C[C@H]2OC[C@@]2(OC(C)=O)C2[C@H](OC(=O)c3ccccc3)[C@]3(O)C[C@H](OC(=O)[C@H](O)[C@@H](NC(=O)c4cccs4)c4cccs4)C(C)=C([C@@H](O)C(=O)[C@@]21C)C3(C)C` (stereo partly drawn) [Compound 4454], the IC50 is less than 1 nM.

In the case of `CCCC(=O)O[C@H]1C[C@H]2OC[C@@]2(OC(C)=O)C2[C@H](OC(=O)c3ccccc3)[C@]3(O)C[C@H](OC(=O)[C@H](O)[C@@H](NC(=O)OC(C)(C)C)c4ccco4)C(C)=C([C@@H](O)C(=O)[C@@]21C)C3(C)C` (stereo partly drawn) [Compound 4499], the IC50 is less than 1 nM.

Turning to `CCC(=O)O[C@H]1C[C@H]2OC[C@@]2(OC(C)=O)C2[C@H](OC(=O)c3ccccc3)[C@]3(O)C[C@H](OC(=O)[C@H](O)[C@@H](NC(=O)OCC(C)C)c4ccsc4)C(C)=C([C@@H](O)C(=O)[C@@]21C)C3(C)C` (stereo partly drawn) [Compound 4544], the IC50 is less than 10 nM.

`CCCC(=O)O[C@H]1C[C@H]2OC[C@@]2(OC(C)=O)C2[C@H](OC(=O)c3ccccc3)[C@]3(O)C[C@H](OC(=O)[C@H](O)[C@@H](NC(=O)OCC(C)C)c4ccsc4)C(C)=C([C@@H](O)C(=O)[C@@]21C)C3(C)C` (stereo partly drawn) [Compound 4600]: the IC50 is less than 10 nM.

As to `CCCC(=O)O[C@H]1C[C@H]2OC[C@@]2(OC(C)=O)C2[C@H](OC(=O)c3ccccc3)[C@]3(O)C[C@H](OC(=O)[C@H](O)[C@@H](NC(=O)OCC(C)C)c4ccco4)C(C)=C([C@@H](O)C(=O)[C@@]21C)C3(C)C` (stereo partly drawn) [Compound 4616], the IC50 was less than 1 nM.

Consider `C/C=C/C(=O)N[C@@H](c1ccco1)[C@@H](O)C(=O)O[C@H]1C[C@@]2(O)[C@@H](OC(=O)c3ccccc3)C3[C@](C)(C(=O)[C@H](O)C(=C1C)C2(C)C)[C@@H](OC(=O)CCC)C[C@H]1OC[C@@]31OC(C)=O` (stereo partly drawn) [Compound 4737], for which the IC50 was less than 1 nM.

Regarding `C/C=C/C(=O)N[C@@H](c1cccs1)[C@@H](O)C(=O)O[C@H]1C[C@@]2(O)[C@@H](OC(=O)c3ccccc3)C3[C@](C)(C(=O)[C@H](O)C(=C1C)C2(C)C)[C@@H](OC(=O)CCC)C[C@H]1OC[C@@]31OC(C)=O` (stereo partly drawn) [Compound 4757], the IC50 was less than 1 nM.

On to `CCC(=O)O[C@H]1C[C@H]2OC[C@@]2(OC(C)=O)C2[C@H](OC(=O)c3ccccc3)[C@]3(O)C[C@H](OC(=O)[C@H](O)[C@@H](NC(=O)OCC(C)C)c4ccoc4)C(C)=C([C@@H](O)C(=O)[C@@]21C)C3(C)C` (stereo partly drawn) [Compound 4787], for which the IC50 was less than 10 nM.

Still in this test, the particulars now being: HCT116 colony formation; 72 h drug incubation, colonies counted after 7 days; Example 10, C-10 ester/C-7 hydroxy taxanes; read-out: IN VITRO ID 50 (nm) HCT116.
On to `CC(=O)O[C@@]12CO[C@@H]1C[C@H](O)[C@@]1(C)C(=O)[C@H](OC(=O)C3CC3)C3=C(C)[C@@H](OC(=O)[C@H](O)[C@@H](NC(=O)OCC(C)C)c4ccoc4)C[C@@](O)([C@@H](OC(=O)c4ccccc4)C12)C3(C)C` (stereo partly drawn) [Compound 4665], for which the IC50 is less than 10 nM.

In the case of `CCCC(=O)O[C@H]1C(=O)[C@@]2(C)C([C@H](OC(=O)c3ccccc3)[C@]3(O)C[C@H](OC(=O)[C@H](O)[C@@H](NC(=O)OCC(C)C)c4ccoc4)C(C)=C1C3(C)C)[C@]1(OC(C)=O)CO[C@@H]1C[C@@H]2O` (stereo partly drawn) [Compound 4704], the IC50 was less than 10 nM.

Take `CCC(=O)O[C@H]1C(=O)[C@@]2(C)C([C@H](OC(=O)c3ccccc3)[C@]3(O)C[C@H](OC(=O)[C@H](O)[C@@H](NC(=O)OCC(C)C)c4ccsc4)C(C)=C1C3(C)C)[C@]1(OC(C)=O)CO[C@@H]1C[C@@H]2O` (stereo partly drawn) [Compound 4711]: the IC50 was less than 10 nM.

`CC(=O)O[C@@]12CO[C@@H]1C[C@H](O)[C@@]1(C)C(=O)[C@H](OC(=O)C3CC3)C3=C(C)[C@@H](OC(=O)[C@H](O)[C@H](C=C(C)C)NC(=O)OCC(C)C)C[C@@](O)([C@@H](OC(=O)c4ccccc4)C12)C3(C)C` (stereo partly drawn) [Compound 4720]: the IC50 was less than 10 nM.

(Values after patent US6638973B2, “Taxane formulations” (FSU Research Foundation, Inc., priority 2000, dated 2003).)
